Reference: patent US7199126B2, “Compositions and treatments for inhibiting kinase and/or HMG-CoA reductase” (Pharmix Corporation, priority 2004, dated 2007)

Biological target: T1, human recombinant p38α protein kinase (Homo sapiens, UniProt Q16539)
T1 construct: purchased UBI (Upstate Biotechnology Inc.) 14–251; host or cells: E. coli
Assay: Human p38α MAP kinase inhibition assay (cell-free, phosphorylation of myelin basic protein)
Assay type: biochemical
Method: Candidate compound and/or vehicle was preincubated with 0.075 μg/mL enzyme in modified HEPES buffer pH 7.4 at 25° C. for 15 minutes. The reaction was initiated by addition of 100 μM ATP and allowed to proceed for another 60 minutes. The reaction was terminated by aspirating the solution. Phosphorylated MBP was detected by incubation with a mouse monoclonal IgG2a anti-phosphoMBP antibody. Bound anti-phosphoMBP antibody was quantitated by incubation with a HRP conjugated goat anti-mouse IgG.

T1 sequence (Q16539 whole entry): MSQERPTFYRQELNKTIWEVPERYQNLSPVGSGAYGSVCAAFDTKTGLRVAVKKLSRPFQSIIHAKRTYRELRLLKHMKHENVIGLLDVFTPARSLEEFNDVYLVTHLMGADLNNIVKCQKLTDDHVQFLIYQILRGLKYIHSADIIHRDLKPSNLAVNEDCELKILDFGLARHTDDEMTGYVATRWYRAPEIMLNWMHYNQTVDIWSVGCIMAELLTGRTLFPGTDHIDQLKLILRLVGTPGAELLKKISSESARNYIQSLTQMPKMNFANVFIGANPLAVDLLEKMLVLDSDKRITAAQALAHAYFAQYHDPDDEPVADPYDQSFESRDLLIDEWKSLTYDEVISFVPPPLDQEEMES

An IC50 of over 100 µM was found for CCC(C)(C)C(=O)O[C@H]1C[C@@H](C)C=C2C=C[C@H](C)[C@H](CC[C@@H]3C[C@@H](O)CC(=O)O3)[C@H]21 [Simvastatin sodium] in this work.
